In US8916526B2, “Flavanone derivative” (National University Corporation Okayama University, priority 2009, dated 2014):
In brackets after ≈: the same amount, converted by molar mass.

Legend:
[1] = biological target: T1, Staphylococcus aureus Topoisomerase IV (Staphylococcus aureus, UniProt P0C1S7+P0C1U9); assay: Topoisomerase IV inhibition (decatenation kit), Exp. Ex. 2-3; assay type: biochemical; conditions: decatenation of kDNA, 37° C., 30 minutes; read-out: IC50 (S. aureus topoisomerase IV inhibitions)
T1 construct: purchased John Innes Enterprises
Method: (§1) Staphylococcus aureus Topoisomerase IV and Escherichia coli Topoisomerase IV were purchased from John Innes Enterprises. 1 unit of topoisomerase IV was cultured with 200 ng of kinetoplast DNA (kDNA) in 30 L of a reaction solution at 37° C. for 30 minutes under the conditions of 50 mM Tris-HCl (pH 7.5) (S. aureus)/50 mM HEPES-KOH (pH 7.6) (E. coli), 5 mM MgCl2 (S. aureus)/5 mM magnesium acetate (E. coli), 350 mM potassium glutamate (S. aureus)/100 mM potassium glutamate (E. coli), 5 mM dithiotheri (S. aureus)/10 mM dithiotheri (E. coli), 1.5 mM ATP (S. aureus)/1 mM ATP (E. coli), and 40% (w/v) glycerol. The reactions were stopped by adding 8 L of a reaction stop solution (40% sucrose, 100 mM Tris.HCl (pH 7.5), 1 mM EDTA, 0.5 mg/ml bromophenol blue). Agarose gel (1.0%) was poured into TAE (40 mM Tris acetate, 2 mM EDTA).

[2] = biological target: T2, Escherichia coli Topoisomerase IV (Escherichia coli, UniProt P0AFI2+P20083); assay: as above; assay type: biochemical; conditions: decatenation of kDNA, 37° C., 30 minutes; read-out: IC50 (E. coli topoisomerase IV inhibitions)
T2 construct: purchased John Innes Enterprises
Method: as §1

E. coli DNA gyrase = biological target: T3, E. coli DNA gyrase (Escherichia coli, UniProt P0AES4+P0AES6); assay: DNA gyrase inhibition (supercoiling kit), Exp. Ex. 2-2; assay type: biochemical; conditions: supercoiling activity, 37° C., 30 minutes; read-out: IC50 (E. coli DNA gyrase inhibitions)
T3 construct: purchased John Innes Enterprises #K0001
Method: As a kit for measurement of DNA gyrase of Escherichia coli, a product purchased from John Innes Enterprises (Gyrase Supercoiling assay kit #K0001) was used. Relaxed DNA was modified with gyrase into supercoiled DNA, and reaction products were separated by electrophoresis depending on the sizes of the molecular weights to examine anti-gyrase effects (IC50). 1 unit (1 U) of DNA gyrase and […] of relaxed pBR322 DNA were added to […] of the reaction solution, and the mixture was allowed to react at 37° C. for 30 minutes in the presence of 35 mM Tris-HCl (pH 7.5), 24 mM KCl, 4 mM MgCl2, 2 mM DTT, 1.8 mM spermidine, 1 mM ATP, 6.5% (w/v) glycerol, and 0.1 mg/ml BSA. The reactions were stopped using […] of a reaction stop solution (40% sucrose, 100 mM Tris-HCl (pH 7.5), 1 mM EDTA, 0.5 mg/ml bromophenol blue).

[3] = system: Methicillin-resistant S. aureus OM481; assay: In vitro infectivity assay (MIC), Exp. Ex. 2-1; assay type: cell-based, Staphylococcus aureus; conditions: Gram-positive, microdilution, MIC after 24 h
Method: (§2) The antibacterial activities were measured based on broth dilution techniques of international standards (Clinical Laboratory Standards Institute: CLSI). The activities were shown by minimum inhibitory concentrations (MICs) determined by inoculating the above-mentioned strains at a concentration of about 10^5 […] into Mueller-Hinton broth (manufactured by Difco) containing 0.85% NaCl in 96-well microplates and incubating the plates at 35° C. for 24 hours. Measurement was carried out three times.
(§3) The antibacterial activities of the compounds of the present invention against various strains such as vancomycin-resistant enterococci (VRE), vancomycin intermediate-resistant Staphylococcus aureus (VISA), methicillin-resistant Staphylococcus aureus (MRSA), and methicillin-sensitive Staphylococcus aureus (MSSA) were examined. Of the bacteria used in MIC measurement in this test example, clinical bacteria of MRSA (OM481 strain and OM584 strain) were supplied from Okayama University Hospital (Japan). An MRSA strain N315, a vancomycin intermediate-resistant Staphylococcus aureus (VISA) strain Mu50, and a methicillin-sensitive Staphylococcus aureus (MSSA) strain FDA 209P were used as controls. Vancomycin-resistant enterococcus (VRE) strains NCTC 12201 and FN-1 were supplied from the National Institute of Infectious Disease (Japan).

[4] = system: Methicillin-resistant S. aureus OM584; assay: In vitro infectivity assay (MIC), Exp. Ex. 2-1; assay type: cell-based, Staphylococcus aureus; conditions: Gram-positive, microdilution, MIC after 24 h
Method: as §2, §3

[5] = system: Methicillin-resistant S. aureus COL; assay: In vitro infectivity assay (MIC), Exp. Ex. 2-1; assay type: cell-based, Staphylococcus aureus; conditions: Gram-positive, microdilution, MIC after 24 h
Method: as §2, §3

[6] = system: Methicillin-resistant S. aureus N315; assay: In vitro infectivity assay (MIC), Exp. Ex. 2-1; assay type: cell-based, Staphylococcus aureus; conditions: Gram-positive, microdilution, MIC after 24 h
Method: as §2, §3

[7] = system: Methicillin sensitive S. aureus 209P; assay: In vitro infectivity assay (MIC), Exp. Ex. 2-1; assay type: cell-based, Staphylococcus aureus; conditions: Gram-positive, microdilution, MIC after 24 h
Method: as §2, §3

[8] = system: Streptococcus pneumoniae R6; assay: In vitro infectivity assay (MIC), Exp. Ex. 2-1; assay type: cell-based; conditions: Gram-positive; microdilution, MIC after 24 h
[9] = system: Pseodomonas aeruginosa PAOI; assay: Antibacterial activity (MIC) against Gram-negative strains, microdilution; assay type: cell-based; conditions: MIC after 24 h
Method: as §2

Escherichia coli K-12 = assay: as above; assay type: cell-based; conditions: for MIC (Gram-nagative) K-12: MIC after 24 h
Method: as §2

[10] = system: Vancomycin intermediate-resistant Staphylococcus aureus Mu50; assay: In vitro infectivity assay (MIC), Exp. Ex. 2-1; assay type: cell-based; conditions: Gram-positive, microdilution, MIC after 24 h
Method: as §2, §3

[11] = system: Vancomycin-resistant enterococci NCTC 12201; assay: In vitro infectivity assay (MIC), Exp. Ex. 2-1; assay type: cell-based; conditions: Gram-positive; microdilution, MIC after 24 h
Method: as §2, §3

[12] = system: Vancomycin-resistant enterococci FN-1; assay: In vitro infectivity assay (MIC), Exp. Ex. 2-1; assay type: cell-based; conditions: Gram-positive; microdilution, MIC after 24 h
Method: as §2, §3

T3 sequence (P0AES4 whole entry, one chain of several): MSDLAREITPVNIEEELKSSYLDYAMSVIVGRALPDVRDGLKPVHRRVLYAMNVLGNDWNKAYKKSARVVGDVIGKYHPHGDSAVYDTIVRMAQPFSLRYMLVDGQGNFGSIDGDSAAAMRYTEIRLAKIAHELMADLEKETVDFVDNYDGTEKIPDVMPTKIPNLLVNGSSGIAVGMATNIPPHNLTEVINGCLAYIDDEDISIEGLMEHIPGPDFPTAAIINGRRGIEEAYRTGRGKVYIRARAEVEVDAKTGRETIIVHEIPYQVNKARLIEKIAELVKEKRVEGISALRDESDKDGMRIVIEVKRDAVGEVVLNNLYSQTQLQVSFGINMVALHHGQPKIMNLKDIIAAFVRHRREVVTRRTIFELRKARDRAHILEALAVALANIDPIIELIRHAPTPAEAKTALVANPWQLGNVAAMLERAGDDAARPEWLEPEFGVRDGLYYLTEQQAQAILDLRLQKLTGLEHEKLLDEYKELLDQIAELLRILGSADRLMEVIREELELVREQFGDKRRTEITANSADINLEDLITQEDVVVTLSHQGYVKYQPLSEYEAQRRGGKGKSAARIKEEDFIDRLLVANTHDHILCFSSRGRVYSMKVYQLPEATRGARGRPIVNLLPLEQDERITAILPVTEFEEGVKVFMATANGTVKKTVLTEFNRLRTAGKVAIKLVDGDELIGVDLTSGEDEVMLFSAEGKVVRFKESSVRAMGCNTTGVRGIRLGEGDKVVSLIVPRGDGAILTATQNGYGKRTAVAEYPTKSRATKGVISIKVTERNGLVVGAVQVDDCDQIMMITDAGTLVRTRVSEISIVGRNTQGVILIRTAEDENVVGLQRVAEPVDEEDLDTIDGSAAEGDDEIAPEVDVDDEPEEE
T1 sequence (P0C1U9 whole entry): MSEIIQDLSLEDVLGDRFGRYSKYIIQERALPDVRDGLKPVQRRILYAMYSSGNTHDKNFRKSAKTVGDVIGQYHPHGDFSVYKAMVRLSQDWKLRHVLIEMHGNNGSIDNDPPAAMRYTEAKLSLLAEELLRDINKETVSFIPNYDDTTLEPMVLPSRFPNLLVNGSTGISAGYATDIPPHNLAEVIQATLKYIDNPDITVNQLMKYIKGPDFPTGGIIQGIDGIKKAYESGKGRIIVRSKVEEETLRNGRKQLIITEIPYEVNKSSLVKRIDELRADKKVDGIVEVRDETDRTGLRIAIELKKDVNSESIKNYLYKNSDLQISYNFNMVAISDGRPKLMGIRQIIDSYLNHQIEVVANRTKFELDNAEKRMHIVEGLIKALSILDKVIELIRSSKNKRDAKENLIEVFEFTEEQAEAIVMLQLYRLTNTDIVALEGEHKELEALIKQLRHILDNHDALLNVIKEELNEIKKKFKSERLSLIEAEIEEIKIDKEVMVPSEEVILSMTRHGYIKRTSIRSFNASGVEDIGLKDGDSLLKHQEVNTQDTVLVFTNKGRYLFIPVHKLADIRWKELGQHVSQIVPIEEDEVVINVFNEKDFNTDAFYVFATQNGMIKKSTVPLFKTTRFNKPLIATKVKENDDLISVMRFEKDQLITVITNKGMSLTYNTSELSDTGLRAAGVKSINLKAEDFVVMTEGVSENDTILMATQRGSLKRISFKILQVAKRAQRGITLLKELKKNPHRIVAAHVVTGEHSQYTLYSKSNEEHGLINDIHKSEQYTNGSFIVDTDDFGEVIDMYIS
T1 sequence (P0C1S7 whole entry): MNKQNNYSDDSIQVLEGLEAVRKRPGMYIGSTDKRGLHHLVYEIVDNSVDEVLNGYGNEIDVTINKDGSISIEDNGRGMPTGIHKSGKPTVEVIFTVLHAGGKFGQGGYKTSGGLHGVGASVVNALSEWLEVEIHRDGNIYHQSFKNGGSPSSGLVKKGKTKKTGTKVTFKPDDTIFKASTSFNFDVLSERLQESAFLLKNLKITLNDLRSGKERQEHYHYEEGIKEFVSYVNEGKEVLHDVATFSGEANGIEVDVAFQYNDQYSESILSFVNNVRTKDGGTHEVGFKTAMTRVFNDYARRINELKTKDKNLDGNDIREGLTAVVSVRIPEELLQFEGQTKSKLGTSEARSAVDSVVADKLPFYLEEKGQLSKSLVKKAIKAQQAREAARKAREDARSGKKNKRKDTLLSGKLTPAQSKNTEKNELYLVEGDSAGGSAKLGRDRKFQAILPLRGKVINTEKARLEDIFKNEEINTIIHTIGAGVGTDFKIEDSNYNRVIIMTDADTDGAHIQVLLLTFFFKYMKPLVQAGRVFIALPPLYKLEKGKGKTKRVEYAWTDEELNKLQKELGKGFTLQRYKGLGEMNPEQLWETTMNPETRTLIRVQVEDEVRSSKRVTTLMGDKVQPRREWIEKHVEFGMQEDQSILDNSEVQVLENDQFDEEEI
T2 sequence (P20083 whole entry): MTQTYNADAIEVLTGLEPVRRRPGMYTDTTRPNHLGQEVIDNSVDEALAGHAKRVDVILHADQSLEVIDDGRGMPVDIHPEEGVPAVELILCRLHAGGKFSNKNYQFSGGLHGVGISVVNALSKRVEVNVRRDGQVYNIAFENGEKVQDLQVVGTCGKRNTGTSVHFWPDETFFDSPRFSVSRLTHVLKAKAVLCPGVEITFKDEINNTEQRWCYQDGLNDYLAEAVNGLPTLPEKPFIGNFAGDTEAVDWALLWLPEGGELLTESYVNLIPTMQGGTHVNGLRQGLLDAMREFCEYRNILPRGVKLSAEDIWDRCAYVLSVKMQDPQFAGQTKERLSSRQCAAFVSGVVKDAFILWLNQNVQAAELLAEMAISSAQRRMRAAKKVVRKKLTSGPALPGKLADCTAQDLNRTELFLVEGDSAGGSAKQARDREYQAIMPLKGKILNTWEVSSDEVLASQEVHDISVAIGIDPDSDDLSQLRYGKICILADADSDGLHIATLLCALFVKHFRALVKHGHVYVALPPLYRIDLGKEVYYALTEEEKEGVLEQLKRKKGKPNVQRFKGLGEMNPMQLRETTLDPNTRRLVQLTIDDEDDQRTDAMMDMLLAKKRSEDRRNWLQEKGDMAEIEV
T2 sequence (P0AFI2 whole entry): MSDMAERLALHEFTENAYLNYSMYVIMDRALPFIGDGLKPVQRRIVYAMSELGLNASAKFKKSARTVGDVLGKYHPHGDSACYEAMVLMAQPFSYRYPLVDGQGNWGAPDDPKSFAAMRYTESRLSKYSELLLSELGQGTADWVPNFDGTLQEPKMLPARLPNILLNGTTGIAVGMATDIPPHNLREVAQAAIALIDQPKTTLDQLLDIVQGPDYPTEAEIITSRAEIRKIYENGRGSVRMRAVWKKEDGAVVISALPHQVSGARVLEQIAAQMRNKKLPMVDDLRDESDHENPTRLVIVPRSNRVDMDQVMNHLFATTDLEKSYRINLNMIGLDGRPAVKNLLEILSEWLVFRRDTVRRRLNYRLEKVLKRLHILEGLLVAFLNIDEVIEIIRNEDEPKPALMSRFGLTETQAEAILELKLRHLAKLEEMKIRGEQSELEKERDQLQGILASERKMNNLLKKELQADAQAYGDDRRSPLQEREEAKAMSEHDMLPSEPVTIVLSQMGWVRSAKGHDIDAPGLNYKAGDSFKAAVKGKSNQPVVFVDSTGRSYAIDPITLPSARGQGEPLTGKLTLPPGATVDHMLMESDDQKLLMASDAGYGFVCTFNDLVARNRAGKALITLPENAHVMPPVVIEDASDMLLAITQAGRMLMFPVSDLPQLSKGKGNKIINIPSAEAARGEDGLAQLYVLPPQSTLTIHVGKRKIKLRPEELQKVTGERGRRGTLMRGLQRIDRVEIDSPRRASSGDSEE

Compound | IC50 [1] [nM] | IC50 [2] [nM] | IC50 (E. coli DNA gyrase) [nM] | MIC MRSA OM481 [3] [µg/mL] | MIC MRSA OM584 [4] [µg/mL] | MIC MRSA COL [5] [µg/mL] | MIC MRSA N315 [6] [µg/mL] | MIC MSSA 209P [7] [µg/mL] | MIC S. Pneumoniae R6 [8] [µg/mL] | MIC (Gram-nagative) PAO1 [9] [µg/mL] | MIC (Gram-nagative) K-12 (Escherichia coli K-12) [µg/mL] | MIC VISA Mu50 [10] [µg/mL] | MIC VRE NCTC 12201 [11] [µg/mL] | MIC VRE FN-1 [12] [µg/mL] | also measured
O=C(CCc1ccc(F)cc1)OC[C@H]1O[C@@H](Oc2c(-c3ccc(O)c(O)c3)oc3cc(O)cc(O)c3c2=O)[C@H](OC(=O)CCc2ccc(F)cc2)[C@@H](O)[C@H]1O [Compound 14i, 2-(3′,4′-Dihydroxyphenyl)-5,7-dihydroxy-3-β-D-{2″,6″-di-O-[3′″-(4-fluorophenylpropanoyl)]}galactosyl-4H-chromen-4-one] | 220 | 7160 | 780 | 0.13 (≈ 0.17 µM) | 0.13 (≈ 0.17 µM) | 0.5 (≈ 0.654 µM) | 0.13 (≈ 0.17 µM) | 0.13 (≈ 0.17 µM) | 0.13 (≈ 0.17 µM) | >128 | >128 | 0.5 (≈ 0.654 µM) | 0.25 (≈ 0.327 µM) | 0.25 (≈ 0.327 µM) | –
CCOc1ccc(CCC(=O)OC[C@H]2O[C@@H](Oc3c(-c4ccc(O)c(O)c4)oc4cc(O)cc(O)c4c3=O)[C@H](OC(=O)CCc3ccc(OCC)cc3)[C@@H](O)[C@H]2O)cc1 [Compound 14g, 2-(3′,4′-Dihydroxyphenyl)-5,7-dihydroxy-3-β-D-{2″,6″-di-O-[3′″-(4-ethoxyphenylpropanoyl)]}galactosyl-4H-chromen-4-one] | 2990 | > 12000 | 5390 | 1 (≈ 1.22 µM) | 1 (≈ 1.22 µM) | 4 (≈ 4.9 µM) | 2 (≈ 2.45 µM) | 2 (≈ 2.45 µM) | 8 (≈ 9.79 µM) | >128 | >128 | 1 (≈ 1.22 µM) | 2 (≈ 2.45 µM) | 2 (≈ 2.45 µM) | –
CO[C@@H]1[C@@H](OC(N)=O)[C@@H](O)[C@H](Oc2ccc3c(O)c(NC(=O)c4ccc(O)c(CC=C(C)C)c4)c(=O)oc3c2C)OC1(C)C [Novobiocin, novobiocin, reference compound] | – | – | – | – | – | – | – | – | – | – | – | – | – | – | MIC ([3]; Staphylococcus aureus, MRSA, read-out: MIC MRSA OM481): 0.25 µg/mL (≈ 0.408 µM); MIC ([4]; Staphylococcus aureus, MRSA, read-out: MIC MRSA OM584): 0.25 µg/mL (≈ 0.408 µM); MIC ([5]; Staphylococcus aureus, MRSA): 0.25 µg/mL (≈ 0.408 µM); MIC ([6]; Staphylococcus aureus, MRSA, read-out: MIC MRSA N315): 0.125 µg/mL (≈ 0.204 µM); MIC ([7]; Staphylococcus aureus, 209P / MSSA, read-out: MIC MSSA 209P): 0.125 µg/mL (≈ 0.204 µM); MIC ([9]; read-out: MIC (Gram-nagative) PAO1): 8 µg/mL (≈ 13.1 µM); MIC (Escherichia coli K-12; K12, MIC after 24 h, read-out: MIC (Gram-nagative) K-12): 8 µg/mL (≈ 13.1 µM); MIC ([10]; Staphylococcus aureus, VISA, read-out: MIC VISA Mu50): 8 µg/mL (≈ 13.1 µM)
O=C(CCc1ccc(F)cc1)OC[C@H]1O[C@@H](Oc2c(-c3ccc(O)c(O)c3)oc3cc(O)cc(O)c3c2=O)[C@H](OC(=O)CCc2ccc(F)cc2)[C@@H](O)[C@H]1O [Compound 14m, 2-(3′,4′-Dihydroxyphenyl)-5,7-dihydroxy-3-β-D-{2″,6″-di-O-[3′″-(4-fluorophenylpropanoyl)]}galactosyl-4H-chromen-4-one] | 2990 | 7520 | 1400 | 16 (≈ 20.9 µM) | 16 (≈ 20.9 µM) | 32 (≈ 41.8 µM) | 16 (≈ 20.9 µM) | 16 (≈ 20.9 µM) | 32 (≈ 41.8 µM) | >128 | >128 | 32 (≈ 41.8 µM) | 16 (≈ 20.9 µM) | 16 (≈ 20.9 µM) | –
CC(=O)OC[C@H]1O[C@@H](Oc2cc(O)c3c(=O)c(O[C@@H]4O[C@H](COC(C)=O)[C@H](OC(C)=O)[C@H](OC(C)=O)[C@H]4OC(C)=O)c(-c4ccc(O)c(O)c4)oc3c2)[C@H](OC(C)=O)[C@@H](OC(C)=O)[C@H]1OC(C)=O [Compound 5, 2-(3′,4′Dihydroxyphenyl)-5-hydroxy-3,7-di-β-D-octaacetylgalactosyl-4H-chromen-4-one] | – | – | – | 32 (≈ 33.2 µM) | 32 (≈ 33.2 µM) | 128 (≈ 133 µM) | 64 (≈ 66.5 µM) | 64 (≈ 66.5 µM) | 64 (≈ 66.5 µM) | >128 | >128 | 64 (≈ 66.5 µM) | 32 (≈ 33.2 µM) | 32 (≈ 33.2 µM) | –
penicillin [reference compound] | – | – | – | – | – | – | – | – | 0.5 | – | – | – | – | – | –
CC(=O)OC[C@H]1O[C@@H](Oc2c(-c3ccc(O)c(O)c3)oc3cc(O)cc(O)c3c2=O)[C@H](OC(C)=O)[C@@H](OC(C)=O)[C@H]1OC(C)=O [Compound 12, 2-(3′,4′-Dihydroxyphenyl)-5,7-dihydroxy-3-β-D-tetraacetylgalactosyl-4H-chromen-4-one] | – | – | – | 128 (≈ 202 µM) | 128 (≈ 202 µM) | >128 | 128 (≈ 202 µM) | 128 (≈ 202 µM) | 128 (≈ 202 µM) | >128 | >128 | 128 (≈ 202 µM) | 64 (≈ 101 µM) | 64 (≈ 101 µM) | –
